Measured values taken from PubChem BioAssay (NCI).
Values joined by “and” are separate entries in the source; they are usually repeats but may differ in a detail not shown here. Identical values can stand only once.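 Assay format: 96-well plates, 48-hour exposure. Abbreviation: GI50, concentration required for 50% inhibition of growth. TGI is the concentration that stops growth completely.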

Tests used:
Experiment in all cases: growth of human tumour cells (NCI), 48 h
A549 NSCLC = test system: A549 NSCLC
SF-268 CNS = test system: SF-268 CNS
UACC-257 melanoma = test system: UACC-257 melanoma
HCT-15 colon = test system: HCT-15 colon
RPMI-8226 leukemia = test system: RPMI-8226 leukemia
HS 578T breast = test system: HS 578T breast
SK-OV-3 ovarian = test system: SK-OV-3 ovarian
SN12C renal = test system: SN12C renal
OVCAR-8 ovarian = test system: OVCAR-8 ovarian
HOP-62 NSCLC = test system: HOP-62 NSCLC

Compound	GI50 (A549 NSCLC)	TGI (A549 NSCLC)	GI50 (SF-268 CNS)	TGI (SF-268 CNS)	GI50 (UACC-257 melanoma)	TGI (UACC-257 melanoma)	GI50 (HCT-15 colon)	TGI (HCT-15 colon)	GI50 (RPMI-8226 leukemia)	TGI (RPMI-8226 leukemia)	GI50 (HS 578T breast)	TGI (HS 578T breast)	GI50 (SK-OV-3 ovarian)	TGI (SK-OV-3 ovarian)	GI50 (SN12C renal)	TGI (SN12C renal)	GI50 (OVCAR-8 ovarian)	TGI (OVCAR-8 ovarian)	GI50 (HOP-62 NSCLC)	TGI (HOP-62 NSCLC)
O=c1oc2ccccc2c(Cl)c1Cl	15.5 µM	32.2 µM	3.91 µM	16.3 µM	2.24 µM	5.39 µM	2.24 µM	6.28 µM	2.71 µM	8.66 µM	2.69 µM	9.71 µM	13.3 µM	87.3 µM	4.58 µM	16.8 µM	4.23 µM	17.4 µM	3.49 µM	14.2 µM
CC(C)(C)[Si](C)(C)OC1[C@@H](O[Si](C)(C)C(C)(C)C)[C@@H](CNC(=O)NC(=O)NC(=O)CI)O[C@H]1n1cnc2c(NC(=O)Nc3ccccc3)ncnc21 (stereo partly specified)	1.57 µM	11.9 µM	1.5 µM	7.04 µM	7.42 µM	16.7 µM	9.81 µM	31.8 µM	0.285 µM	1.76 µM	2.5 µM	17.8 µM	10.4 µM	27.9 µM	6.49 µM	15.6 µM	0.275 µM	0.925 µM	0.392 µM	1.28 µM
O=C(O)C1CCCN1Cc1c[nH]c2ccccc12 (stereo unspecified)		> 100 µM		> 100 µM		> 100 µM		> 100 µM		> 100 µM		> 100 µM		> 100 µM		> 100 µM		> 100 µM		> 100 µM
Cc1c2ncccc2c(C)c2c1[nH]c1ccc(O)cc12	4.89 µM and 1.93 µM	15.4 µM and 13 µM	7.55 µM	19.1 µM	27.3 µM	25.2 µM and 89 µM	6.16 µM and 6.53 µM	17.6 µM and 40 µM	3.07 µM	8.78 µM and 15.4 µM	7.84 µM	21.2 µM and 84.8 µM		11.4 µM	5.99 µM and 5.39 µM	14.2 µM and 42.5 µM	4.99 µM and 2.86 µM	18.2 µM and 32.1 µM	4.01 µM and 5.07 µM	10.8 µM and 59.5 µM
CN(C)CCCNC(=O)c1cc(NC(=O)c2cc(NC(=O)CCCN3c4ccccc4C=Cc4ccccc43)cn2C)cn1C	11.5 µM	39.9 µM	5.06 µM	> 100 µM	4.5 µM	30.6 µM	25.7 µM	82.7 µM	2.29 µM	6.21 µM	4.87 µM	40 µM	21.9 µM	> 100 µM	13.8 µM	43 µM	17.3 µM	72.2 µM	10.2 µM	> 100 µM
NCCCn1c2c(c3ccccc3c1=O)C(=O)c1cc3c(cc1-2)OCO3	0.0273 µM	0.658 µM	1.51 µM	15 µM	1.95 µM	12.6 µM	0.101 µM	0.882 µM	< 0.0214 µM	0.258 µM	0.687 µM	4.31 µM	1.93 µM	13 µM	0.276 µM	1.05 µM	0.173 µM		0.278 µM	12.2 µM
Nc1nc(SCC(=O)O)[nH]c(=O)c1N		> 100 µM		> 100 µM		> 100 µM		> 100 µM		99.7 µM		> 100 µM		> 100 µM		30.5 µM		> 100 µM		> 100 µM
O=C(Nc1ncc([N+](=O)[O-])s1)c1cccc([N+](=O)[O-])c1	4.24 µM	42.5 µM	8.25 µM	> 100 µM	3.19 µM	13.8 µM	6.11 µM	> 100 µM	1.43 µM	5.41 µM	1.72 µM	> 28.4 µM	3.72 µM	35.7 µM	2.73 µM	> 53.3 µM	3.2 µM	20.3 µM	3.75 µM	> 40.9 µM
COc1cc(/C=C2\CC(C)CC3C2=NN(c2ccccc2)C3c2cc(OC)c(OC)c(OC)c2)cc(OC)c1OC (stereo unspecified)	14.9 µM	> 100 µM	14.1 µM	44.6 µM	20.4 µM	> 100 µM	11.2 µM	25.6 µM	3 µM	26.5 µM	18.4 µM	81.2 µM	9.14 µM	41 µM	19.8 µM	> 100 µM	10.2 µM	> 100 µM		
CCOC(=O)Oc1c(OC)cc(C(=O)c2ccc(OC)c(OC(=O)CCl)c2OC)cc1OC	3.39 µM	> 100 µM	10.7 µM	> 100 µM	66.6 µM	> 100 µM	0.415 µM	> 100 µM	1.98 µM	> 100 µM	0.556 µM	> 100 µM	2.58 µM	> 100 µM	3.39 µM	> 100 µM	2.65 µM	> 100 µM	0.836 µM	> 100 µM
CC1/C=C/C=C/CC/C=C/C=C/C=C/C=C/C(OC2OC(C)C(O)C(N)C2O)CC2OC(CC(O)C(O)CCC(O)CC(O)CC(O)CC(=O)OC(C)C(C)C1O)CC(O)C2C(=O)O (stereo unspecified)	24.5 µg/mL	33 µM and 46.3 µg/mL	33.9 µg/mL	56.9 µM and 70.7 µg/mL	28.9 µg/mL	32.7 µM and 53.8 µg/mL	43.8 µg/mL	82.2 µM and 150 µg/mL	150 µg/mL	45.2 µM and 150 µg/mL	32.5 µg/mL	55.1 µM and 66.9 µg/mL	47.1 µg/mL	44.4 µM and 136 µg/mL	23.4 µg/mL	30.3 µM and 43.8 µg/mL	33.3 µg/mL	47 µM and 74.6 µg/mL	25.4 µg/mL	35.8 µM and 55.3 µg/mL
Clc1ccc(N2COOC3(OOC2)C2CC4CC(C2)CC3C4)cc1	5.18 µM	> 100 µM	5.88 µM	> 67.4 µM	> 54.4 µM	> 100 µM	0.864 µM	> 41.9 µM	4.28 µM	14.7 µM	8.99 µM	> 100 µM	> 100 µM	> 100 µM	5.35 µM	> 56.9 µM	14.4 µM	> 100 µM	13.9 µM	38.6 µM
CC1=C(C(=O)Nc2ccc(F)c(Cl)c2)C(c2cccc(O)c2)NC(=S)N1 (stereo unspecified)	21 µM	> 50 µM	17.8 µM	> 50 µM	16.5 µM	44.4 µM	47.8 µM	> 50 µM	30.1 µM	> 50 µM	13.7 µM	47 µM	16.8 µM	> 50 µM	12.7 µM	39.2 µM	28.5 µM	> 50 µM	> 50 µM	> 50 µM
